From patent publication US20210315816A1, “ANTIMICROBIAL COMPOSITIONS AND METHODS” (BOARD OF REGENTS OF THE UNIVERSITY OF NEBRASKA, priority 2018, published 2021)

How the values were obtained:
[1] = system: S. aureus; conditions: 10 mg/kg, cited from earlier work
[2] = system: bone marrow-derived macrophages; assay: IL-4 pre-treated bone marrow-derived macrophages with oligomycin: TNF-α, arginase, protein yield
Method: Bone marrow-derived macrophages were plated overnight and the following day cells were pre-treated with IL-4 (10 ng/mL) for 1 hour followed by various concentrations of oligomycin for 24 hours, whereupon TNF-α (FIG. 2A) and arginase (FIG. 2B) expression was determined by ELISA and enzymatic assay, respectively. Data are presented as the mean±SD combined from two independent experiments (n=6 biological replicates) (*, p<0.05; **, p<0.01; ***, p<0.001; Student's t-test).
Macrophages were expanded from the bone marrow of both male and female C57BL/6NCrl mice as described (Yamada, et al. (2018) Infect. Immun., 86(7) e00206-18). At day in vitro 6, macrophages were harvested and seeded at 5×10^4 cells/well in a 96-well plate. Following an overnight adherence period, macrophages were pre-treated with 10 ng/mL recombinant mouse (rm)IL-4 (Cat #574306 BioLegend, San Diego, Calif.) for 1 hour followed by exposure to various concentrations of oligomycin (Cat #11342 Cayman Chemical) for 24 hours, whereupon medium was collected to quantify TNF-α by cytometric bead array (Cat #552364, BD Biosciences) and arginase activity (Cat #MAK112, Millipore Sigma).

[3] = system: S. aureus USA300 LAC13c; assay: Mouse model of S. aureus orthopedic implant biofilm infection, bacterial burdens; type: in vivo
Method: To model infectious complications that can arise in patients following arthroplasty, a mouse model of S. aureus orthopedic implant infection was used (Heim, et al. (2014) Methods Mol. Biol., 1106:183-191; Heim, et al. (2015) J. Leukoc. Biol., 98:1003-1013; Heim, et al. (2014) J. Immunol., 192:3778-3792; Heim, et al. (2015) J. Immunol., 194:3861-3872; Scherr, et al. (2014) Methods Mol. Biol., 1106:173-181). […] Briefly, mice were anesthetized with ketamine/xylazine (100 mg/kg and 5 mg/kg, respectively) and the surgical site was disinfected with povidone-iodine. After a surgical plane of anesthesia was achieved, a medial incision was created through the quadriceps with lateral displacement to access the distal femur. […]
Animals were placed in an induction chamber without restraint and anesthetized with 2.5% isoflurane. […] Nanoparticle injection and length of retention was evaluated in the same cohort of mice using an In Vivo Imaging System (IVIS® Spectrum; PerkinElmer, Waltham, Mass.) under isoflurane anesthesia, with excitation and emission wavelengths of 640 nm and 680 nm, respectively. […]

[4] = system: biofilm-associated monocytes; assay: JC-1 and 2-NBDG staining of biofilm-associated monocytes (OxPhos, glycolysis); type: in vivo, mouse; conditions: days 3 or 7 after intra-articular injection at day 7 post-infection; oligomycin 100 ng
Method: C57BL/6NCrl mice received a single intra-articular injection of free oligomycin only (Oligo; 100 ng), empty nanoparticles (CT), empty nanoparticles (CT)+free oligomycin (100 ng; not loaded), or oligomycin loaded nanoparticles (CTO) at day 7 post-infection and were analyzed at day 3 (FIG. 12A, 12B; 5 mice/group) or 7 (FIGS. 12C, 12D; 9-10 mice/group) after treatment. FIGS. 12A, 12C: OxPhos was calculated as the ratio of […] monocytes (CD11b^highLy6G^−Ly6C^+F4/80^−) following JC-1 staining and glycolytic activity was calculated as the percentage of 2-NBDG+ monocytes. FIGS. 12B, 12D: Bacterial burdens were assessed in the surrounding soft tissue, knee, femur, and implant, where the dotted lines represent the limit of detection (LOD). All results are reported as the mean±SD (*, p<0.05; **, p<0.01; ***, p<0.001; ****, p<0.0001; One-way ANOVA).
Leukocytes recovered from animals with sterile or S. aureus infected orthopedic implants were stained with the bi-potential dye JC-1 (5,5′,6,6′-Tetrachloro-1,1′,3,3′-tetraethylbenzimidazolocarbocyanine iodide; Cat #T3168 Invitrogen) or the fluorescent glucose analog 2-NBDG (2-(N-(7-Nitrobenz-2-oxa-1,3-diazol-4-yl)Amino)-2-Deoxyglucose; Cat #N13195 ThermoFisher) to evaluate OxPhos and glycolytic activity, respectively. JC-1 emits red fluorescence in mitochondria with large membrane potentials and green fluorescence in depolarized mitochondria. […]

[5] = system: S. aureus; assay: S. aureus biofilm formation in 96-well plates ± oligomycin; type: cell-based; conditions: 10 μg/mL
Method: C57BL/6NCrl mice received intra-articular injections of oligomycin at 7 day post-infection (100 ng), or two sequential doses at days 7 and 8 post-infection (50 ng/day), or PBS and were sacrificed at day 14 post-infection. Bacterial burdens were quantified from the surrounding soft tissue, knee, femur, and implant. Results are from one experiment (n=5 mice/group/time point); (*, p<0.05; one-way ANOVA). Additionally, S. aureus biofilm formation was assessed in 96-well plates±oligomycin treatment (bottom graphs). Oligomycin (10 μg/mL) was added to planktonic S. aureus at time 0 (left panel) or mature biofilms for 4 days (right panel) to determine effects on bacterial growth at the indicated time points following oligomycin treatment. Cultures were replenished daily with fresh medium containing oligomycin. Results are presented as Log10 colony forming units (CFU) per well (mean±SD).

[6] = IL-4 10 ng/mL 1 hour, then oligomycin 24 hours, dose-dependent

SMILES | S. aureus titers in the joint [1] | S. aureus burdens on orthopedic implants ([1]; near the limit of detection) | toxicity to macrophages (protein yields) [2] | TNF-α expression [2, 6] | arginase activity [2, 6] | biofilm burdens ([3]; days 3 or 7 after intra-articular injection, oligomycin 100 ng) | bacterial burdens ([3]; direct intra-articular injection, one bolus (100 ng) or two sequential doses (50 ng/day), day 14 post-infection) | monocyte OxPhos activity (JC-1) [4] | bactericidal activity during early biofilm formation or mature biofilms in vitro [5]
CCCCCCCCCC(=O)N[C@@H](Cc1c[nH]c2ccccc12)C(=O)N[C@H](CC(N)=O)C(=O)N[C@@H](CC(=O)O)C(=O)N[C@@H]1C(=O)NCC(=O)N[C@@H](CCCN)C(=O)N[C@@H](CC(=O)O)C(=O)N[C@H](C)C(=O)N[C@@H](CC(=O)O)C(=O)NCC(=O)N[C@H](CO)C(=O)N[C@@H]([C@H](C)CC(=O)O)C(=O)N[C@@H](CC(=O)c2ccccc2N)C(=O)O[C@@H]1C [daptomycin] | less affected | < 10^2 CFU | – | – | – | – | – | – | –
CC[C@H]1/C=C/C=C/C[C@@H](C)[C@H](O)[C@@](C)(O)C(=O)[C@@H](C)[C@H](O)[C@@H](C)C(=O)[C@@H](C)[C@H](O)[C@@H](C)/C=C/C(=O)O[C@@H]2[C@H](C)[C@H](CC1)O[C@]1(CC[C@H](C)[C@H](C[C@@H](C)O)O1)[C@H]2C [oligomycin] | – | – | not toxic to macrophages | increasing TNF-α expression | decreasing arginase activity | no changes | no effect on bacterial burdens | no changes | no bactericidal activity
